Reference: patent US8609656B2, “Heteroarylphenylurea derivative” (Chugai Seiyaku Kabushiki Kaisha, priority 2004, dated 2013)
Values after ≈ are worked out from the molar mass of the structure shown. Counter-ions that a name gives are not always drawn.

Tests used:
[1] = Antitumor test, reduction in body weight; type: in vivo, male Balb/c nude mouse; settings: dosage 200 mg/kg, orally one time a day for 5 days, day 7 after starting administration
Method: (§1) A cell suspension of a human colorectal cancer cell strain HCT 116 was prepared with a Hunks' balanced salt solution. Its 5.0×10^6 were inoculated subcutaneously to the flank of each male Balb/c nude mouse. When the mean volume of a tumor reached 200 to 250 mm^3, a sample compound was orally administered one time a day for 5 days. The tumor volume was calculated from the calculation formula: 0.5×(minor diameter)^2×(major diameter), and the tumor growth inhibition ratio was calculated from the ratio of the tumor growth of the sample administered group to that of a reference group. The dosage in the antitumor test, the tumor growth inhibition ratio on the final administration day and the reduction in body weight on day 7 after starting administration are shown in Tables 6-1 and 6-2

[2] = target: T1, recombinant Raf-1 protein (activated type GST-Raf-1) (Homo sapiens, UniProt P04049); assay: RAF-1 enzyme inhibition test (33P incorporation into MEK 1 protein); type: biochemical; settings: 10 μM ATP, GST-MEK1 substrate, 30° C., 45 minutes; read-out: Raf-1 Enzyme Inhibition, 50% Enzyme Inhibition Concentration (IC50 value)
T1 construct: fused on or other part: GST tag fused to Raf-1
Method: RAF-1 Enzyme Inhibition Test
With respect to the compounds relating to the present invention and the known compound (BAY 43-9006):
[drawing 660] the Raf-1 protein inhibition activity was measured. The enzymatic reaction was measured by incorporation of ^33P-phosphoric acid into MEK 1 protein by a recombinant Raf-1 protein. The activity was measured by preparing 50 μL of a reaction solution containing a dimethyl sulfoxide solution of the compound relating to the present invention or the compound BAY 43-9006 at a varied concentration [as the final concentration, the reaction solution containing […] of TRIS hydrochloric buffer (pH 7.5), 1 mM of dithiothreitol, 100 mM of sodium chloride, 10 mM of potassium fluoride, 1 mM of sodium vanadate, 10 mM of magnesium chloride, 10 μM of adenosine triphosphate (ATP, containing ^33P-ATP of 12580Bq), 2 μg of GST-MEK1 and 25 ng of an activated type GST-Raf-1]; keeping the reaction solution at 30° C. for 45 minutes; adding 100% trichloroacetic acid to the reaction solution in an amount twice the volume of the reaction solution to precipitate a proteinous component; recovering the precipitate on a glass filter; and measuring the radioactivity of the recovered product. The 50% inhibition concentration (IC50) was obtained from the inhibition ratio to a sample-free reference.
The compound BAYT 43-9006 was prepared on the basis of the description (Example 41) of WO 00/42012.

[3] = test system: VEGF non-dependent human umbilical vein endothelial cells (HUVEC); assay: Cell growth inhibition test, VEGF non-dependent HUVEC; type: cell-based; settings: 72 hours, WST-1, read-out: HUVEC (VEGF Nondependence), 50% Growth Inhibition Concentration (IC50 value)
Method: (§2) Cell Growth Inhibition Test
(§3) With respect to the compounds relating to the present invention and the known compound (BAY 43-9006), cell growth inhibition activity was measured.
(§4) A sample compound was in-series diluted with dimethyl sulfoxide, and then was 1/50 diluted with a Ca^2+- and Mg^2+-free phosphate-bufferized physiological saline and its 20 μL was poured to a 96-well plate. […] Each of these cell suspensions was dividedly poured to the sample added plate in 180 μL/well and cultured in a 5% carbon dioxide incubator at 37° C. After 72 hours, 20 μL of WST-(HCT 116, a product of Dojin) or WST-1 (HUVEC, a product of Roche diagnostics) was added thereto to each well and the absorbance at 450 nm (reference wavelength: 650 nm) was measured. From the growth inhibition ratio of addition of the sample compound to no-addition of the sample compound as a reference, the 50% growth inhibition IC50) of the sample compound was calculated.
(§5) With respect to the group of representative compounds of the present invention, the IC50 values of HCT 116 and HUVEC (VEGF nondependent growth and VEGF dependent growth) are shown in Tables 5-1 to 5-3.

VEGF dependent HUVEC = assay: Cell growth inhibition test, VEGF dependent HUVEC; type: cell-based; settings: Homo sapiens, 20 ng/mL of VEGF, 72 hours, WST-1, read-out: HUVEC (VEGF Dependence), 50% Growth Inhibition Concentration (IC50 value)
Method: as §2, §3, §4, §5

[4] = test system: human colorectal cancer cell strain HCT 116; assay: Antitumor test, HCT 116 inoculated subcutaneously in nude mouse; type: in vivo, male Balb/c nude mouse; settings: dosage 200 mg/kg, orally one time a day for 5 days, final administration day
Method: as §3, §1

[5] = test system: human colorectal cancer cell strain HCT 116; assay: Cell growth inhibition test, HCT 116; type: cell-based; settings: 72 hours, read-out: HCT116, 50% Growth Inhibition Concentration (IC50 value)
Method: as §2, §3, §4, §5

[6] = Solubility to fasted state simulated intestinal fluid; type: physicochemical; settings: fassif, kinetic from dmso stock, fasted state simulated intestinal fluid (pH 6.5), 37° C.
Method: Method of Measuring Solubility to Fasted State Simulated Intestinal Fluid
To a 96-well plate, 2 μL of a dimethyl sulfoxide solution of the compound relating to the present invention or that of the compound BAY 43-9006 was poured at one time, respectively, and fasted state simulated intestinal fluid (pH 6.5) was added 200 μL by 200 μL, and the plate was shaken at 37° C. for 20 hours. The solution was filtered with a membrane filter and 101 μL of the filtrate was transferred to an UV plate, and 100 μL of a mixed solution of ethanol:water=2:1 was added thereto. On the other hand, as a standard solution, 2 μL of a dimethyl sulfoxide solution was added to a solution containing 4 μL of dimethyl sulfoxide, 400 μL of ethanol and 200 μL of water and the obtained solution was transferred 101 μL by 101 μL to the UV plate and to this UV plate, the simulated fasting bile-containing intestinal juice (pH 6.5) was added 100 μL by 100 μL. The solubility was calculated by the following equation. Solubility=(absorbance of sample solution-blank)/(absorbance of standard solution-blank)×[…]
165 μL is a concentration of the standard solution.
Composition of Fasted State Simulated Intestinal Fluid
Fasted state simulated intestinal fluid was prepared in accordance with E. Galia et al., Pharm. Res., 698, 1998.
To about 90 mL of water, 161 mg of taurocholic acid, 59 mg of L-α-phosphatidylcholine, 0.39 g of potassium dihydrogenphosphate and 0.77 g of potassium chloride were added and the pH of the mixture solution […] and the mixture solution was filtered with a membrane filter.

T1 sequence (P04049 349-648 limits assumed): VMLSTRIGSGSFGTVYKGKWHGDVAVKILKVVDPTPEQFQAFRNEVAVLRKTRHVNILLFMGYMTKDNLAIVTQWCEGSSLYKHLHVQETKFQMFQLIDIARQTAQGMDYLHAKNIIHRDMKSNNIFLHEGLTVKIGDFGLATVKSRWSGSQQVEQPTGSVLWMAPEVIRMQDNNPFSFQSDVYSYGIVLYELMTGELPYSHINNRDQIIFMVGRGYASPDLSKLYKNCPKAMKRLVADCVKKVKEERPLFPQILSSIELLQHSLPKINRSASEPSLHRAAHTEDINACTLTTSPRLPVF

Row | SMILES | IC50 [2] [nM] | IC50 [5] [nM] | solubility at 20 h [6] [µg/mL] | Body Weight Reduction ratio (%) [1] [%] | IC50 [3] [nM] | IC50 (VEGF dependent HUVEC) [nM] | Tumor Inhibition Ratio (%) [4] [%]
1 | CNc1ncnc2c1ncn2-c1ccc(NC(=O)Nc2ccc(Cl)c(C(F)(F)F)c2)cc1.Cl [Table 1, Compound 36, 1-(4-Chloro-3-(trifluoromethyl)phenyl)-3-[4-(6-(methylamino)purin-9-yl)phenyl]urea hydrochloride] | 110 | 700 | 22 | 5.9 | 250 | 79 | 81
2 | N[C@@H](CCC(=O)Nc1ncnc2c1ncn2-c1ccc(NC(=O)Nc2ccc(Cl)c(C(F)(F)F)c2)cc1)C(=O)O [Table 1, Compound 104, (S)-2-Amino-4-(9-{4-[3-(4-chloro-3-(trifluoromethyl)-phenyl)ureido]phenyl}-9H-purin-6-ylcarbamoyl)butanoic acid hydrochloride] | 74 | 3900 | – | – | 7400 | 930 | –
3 | CNc1ncnc2c1ncn2-c1ccc(NC(=O)Nc2cc(CN(C)C)cc(C(F)(F)F)c2)cc1 [Table 2, Compound 30, 1-(3-Dimethylaminomethyl-5-(trifluoromethyl)phenyl)-3-[4-(6-(methylamino)purin-9-yl)-phenyl]urea] | 190 | – | 105 (≈ 217 µM) | 5.7 | – | – | 131
4 | COCCNc1ncnc2c1ncn2-c1ccc(NC(=O)Nc2ccc(Cl)c(C(F)(F)F)c2)cc1.Cl [Table 1, Compound 35, 1-(4-Chloro-3-(trifluoromethyl)phenyl)-3-{4-[6-(2-methoxy-ethylamino)purin-9-yl]phenyl}urea hydrochloride] | – | 2800 | 24 | – | 2400 | 460 | –
5 | CN1CCN(Cc2cc(NC(=O)Nc3ccc(-n4cnc5c(N)ncnc54)cc3)cc(C(F)(F)F)c2)CC1 [Table 2, Compound 26] | 83 | – | 61 (≈ 116 µM) | 5.0 | – | – | 72
6 | CNC(=O)c1nccc2c1ncn2-c1ccc(NC(=O)Nc2ccc(Cl)c(C(F)(F)F)c2)cc1 [Table 1, Compound 93, 1-{4-[3-(4-Chloro-3-(trifluoro-methyl)phenyl)ureido]phenyl}-1H-imidazo[4,5-c]pyridine-4-carboxylic acid methylamide] | 53 | – | – | 6.0 | – | – | 79
7 | CC(C)C[C@H](N)C(=O)Nc1ncnc2c1ncn2-c1ccc(NC(=O)Nc2ccc(Cl)c(C(F)(F)F)c2)cc1 [Table 1, Compound 96, (S)-2-Amino-4-methyl-pentanoic acid 9-{4-[3-(4-chloro-3-(tri-fluoromethyl)phenyl)ureido}-phenyl)-9H-purin-6-yl)amide hydrochloride] | 44 | 2200 | 102 | – | 3200 | 91 | –
8 | CN(C)/C=N\c1ncnc2c1ncn2-c1ccc(NC(=O)Nc2ccc(Cl)c(C(F)(F)F)c2)cc1 [Table 1, Compound 95, N′-(9-{4-[3-(4-Chloro-3-(tri-fluoromethyl)phenyl)ureido]-phenyl}-9H-purin-6-yl}-N,N-dimethylformamidine hydro-chloride] | 42 | 3100 | – | – | 2600 | 470 | –
9 | CNc1ncnc2c1ncn2-c1ccc(NC(=O)Nc2ccc(CN3CCN(C)CC3)c(C(F)(F)F)c2)cc1 [Table 2, Compound 46, 1-[4-(6-(Methylamino)purin-9-yl)phenyl]-3-[4-(4-methylpiperazin-1-ylmethyl)-3-(trifluoromethyl)phenyl]urea] | – | 240 | – | – | 130 | 2.5 | –

More lines, main results first:

Row | IC50 [2] [nM] | IC50 [5] [nM] | solubility at 20 h [6] [µg/mL] | SMILES | Body Weight Reduction ratio (%) [1] [%] | IC50 [3] [nM] | IC50 (VEGF dependent HUVEC) [nM] | Tumor Inhibition Ratio (%) [4] [%]
10 | – | 700 | 35 (≈ 64.7 µM) | CNc1ncnc2c1ncn2-c1ccc(NC(=O)Nc2ccc(OC3CCN(C)CC3)c(C(F)(F)F)c2)cc1 [Table 2, Compound 62, 1-[4-(6-(Methylamino)purin-9-yl)-phenyl]-3-[4-(1-methylpiperidin-4-yloxy)-3-(trifluoromethyl)phenyl]-urea] | – | 900 | 11 | –
11 | 41 | 2800 | 23 (≈ 41.5 µM) | CNc1ncnc2c1ncn2-c1ccc(NC(=O)Nc2ccc(CN3CC(C)NC(C)C3)c(C(F)(F)F)c2)cc1 (stereo not drawn) [Table 3, Compound 46, 1-[4-(3,5-Dimethyl-piperazin-1-ylmethyl)-3-(trifluoromethyl)phenyl]-3-[4-(6-(methylamino)purin-9-yl)phenyl]urea] | – | 4200 | 290 | –
12 | – | 1900 | – | CNc1ncnc2c1ncn2-c1ccc(NC(=O)Nc2ccc(OCCN3CCOCC3)c(C(F)(F)F)c2)cc1 [Table 2, Compound 53, 1-[4-(6-(Methylamino)purin-9-yl)phenyl]-3-[4-(2-morpholin-4-yl-ethoxy)-3-(trifluoromethyl)phenyl]urea] | – | 1700 | 650 | –
13 | – | 2400 | – | CNc1ncnc2c1ncn2-c1ccc(NC(=O)Nc2cc(N(C)C)cc(C(F)(F)F)c2)cc1 [Table 2, Compound 48, 1-(3-Dimethylamino-5-(trifluoromethyl)phenyl)-3-[4-(6-(methylamino)purin-9-yl)phenyl]urea] | – | 3700 | 280 | –
14 | – | 3800 | 126 (≈ 245 µM) | CNc1ncnc2c1ncn2-c1ccc(NC(=O)Nc2ccc(OCCN(C)C)c(C(F)(F)F)c2)cc1 [Table 2, Compound 52, 1-[4-(2-Dimethylaminoethoxy)-3-(trifluoromethyl)phenyl]-3-[4-(6-(methylamino)purin-9-yl)phenyl]urea] | – | 3800 | 270 | –
15 | – | 2700 | – | CN1CCN(Cc2ccc(NC(=O)Nc3ccc(-n4cnc5cnccc54)cc3)cc2C(F)(F)F)CC1 [Table 3, Compound 18, 1-(4-Imidazo[4,5-c]pyridin-1-yl-phenyl)-3-[4-(4-methyl-piperazin-1-ylmethyl)-3-(trifluoromethyl)phenyl]urea] | – | 3100 | 26 | –
